Experimental data: ChEMBL document CHEMBL1133025, “The utilization of a unified pharmacophore query in the discovery of new antagonists of the adenosine receptor family” (Bioorg Med Chem Lett, 2000)

Assays:
Adenosine receptor A3 [1] = target: T1, Adenosine receptor A3 (Homo sapiens, UniProt P0DMS8); assay: In vitro binding affinity against human Adenosine A3 receptor
T1 sequence (P0DMS8 whole entry): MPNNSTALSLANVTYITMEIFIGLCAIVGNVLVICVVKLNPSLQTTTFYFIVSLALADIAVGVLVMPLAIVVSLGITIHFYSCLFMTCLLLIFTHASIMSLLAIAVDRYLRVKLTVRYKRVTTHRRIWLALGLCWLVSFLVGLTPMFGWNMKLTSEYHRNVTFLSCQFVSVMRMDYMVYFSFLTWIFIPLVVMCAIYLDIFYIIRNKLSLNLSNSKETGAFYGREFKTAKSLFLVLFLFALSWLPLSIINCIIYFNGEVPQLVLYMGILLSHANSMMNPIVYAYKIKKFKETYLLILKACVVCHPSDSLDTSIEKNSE

Adenosine receptor A3 [2] = target: T1, Adenosine receptor A3; assay: Inhibition of [35S]GTP-gamma-S, binding stimulated by 20 uM 5''-N-ethyluronamidoadenosine (NECA) in membranes of HEK293 cells expressing human Adenosine A3 receptor; format: functional, cell membranes
[3] = target: T2, Adenosine receptor A3 (Homo sapiens) (UniProt P0DMS8); assay: In vitro inhibitory activity against human Adenosine A3 receptor at 10e-5 M
T2 sequence (whole entry): T1 sequence (P0DMS8 whole entry)

Adenosine receptor A3 [4] = target: T1, Adenosine receptor A3; assay: Inhibition of [35S]GTP-gamma-S, binding stimulated by 5 uM 5''-N-ethyluronamidoadenosine (NECA) in membranes of HEK293 cells expressing human Adenosine A3 receptor; format: functional, cell membranes

| SMILES | Ki (Adenosine receptor A3 [1]) [nM] | inhibition [3] [%] | also measured |
| --- | --- | --- | --- |
| CCOC(=O)c1c(NC(=O)Cc2ccccc2)sc2c1CCN(C(=O)OCC)C2 | 600 | – | IC50 (Adenosine receptor A3 [2]): 186 nM |
| O=C(NCCc1c[nH]c2ccc(OCc3ccccc3)cc12)c1ccco1 | – | 70 | – |
| COc1ccc(-c2csc(NC3OC(=O)c4c3ccc(OC)c4OC)n2)cc1 (stereo unspecified) | 1300 | – | IC50 (Adenosine receptor A3 [2]): 255 nM |
| CCSc1nnc2c(n1)OC(c1ccc(-c3ccc(Cl)cc3)o1)Nc1ccccc1-2 (stereo unspecified) | – | 60 | – |

More lines, main results first:

| Ki (Adenosine receptor A3 [1]) [nM] | inhibition [3] [%] | SMILES | also measured |
| --- | --- | --- | --- |
| – | 65 | COc1ccc(N(CC(=O)Nc2cccc(Cl)c2C)S(=O)(=O)c2ccccc2)cc1 | – |
| 3100 | – | CCOC(=O)CNC(c1ccccc1)c1cc(Br)ccc1NC(=O)c1ccccc1 (stereo unspecified) | IC50 (Adenosine receptor A3 [4]): 407 nM |
| – | 60 | CC(NC(=O)OCc1ccccc1)C(=O)Oc1cc(O)c2c(=O)cc(-c3ccccc3)oc2c1 (stereo unspecified) | – |
| – | 65 | Cc1ccc(N(CC(=O)N/N=C/c2ccccc2O)S(=O)(=O)c2ccccc2)cc1 | – |
